According to ChEMBL document CHEMBL3526048, “In vitro metabolism of rivoglitazone, a novel peroxisome proliferator-activated receptor γ agonist, in rat, monkey, and human liver microsomes and freshly isolated hepatocytes” (Drug Metab Dispos, 2011):

Tests used:
[1] = target: T1, UDP-glucuronosyltransferase 1A3 (Homo sapiens, UniProt P35503); test: Activity of human UGT1A3 expressed in microsomes isolated from baculovirus infected insect cell assessed as enzyme-mediated 3-(4-((6-methoxy-1-methyl-1H-benzo[d]imidazol-2-yl)methoxy)phenyl)-2-(methylsulfinyl)propanamide formation at 20 uM after 4 hrs by radio-HPLC/LC-MS/MS analysis in presence of NADPH-generating system/SAM; assay type: ADME
T1 sequence (P35503 whole entry): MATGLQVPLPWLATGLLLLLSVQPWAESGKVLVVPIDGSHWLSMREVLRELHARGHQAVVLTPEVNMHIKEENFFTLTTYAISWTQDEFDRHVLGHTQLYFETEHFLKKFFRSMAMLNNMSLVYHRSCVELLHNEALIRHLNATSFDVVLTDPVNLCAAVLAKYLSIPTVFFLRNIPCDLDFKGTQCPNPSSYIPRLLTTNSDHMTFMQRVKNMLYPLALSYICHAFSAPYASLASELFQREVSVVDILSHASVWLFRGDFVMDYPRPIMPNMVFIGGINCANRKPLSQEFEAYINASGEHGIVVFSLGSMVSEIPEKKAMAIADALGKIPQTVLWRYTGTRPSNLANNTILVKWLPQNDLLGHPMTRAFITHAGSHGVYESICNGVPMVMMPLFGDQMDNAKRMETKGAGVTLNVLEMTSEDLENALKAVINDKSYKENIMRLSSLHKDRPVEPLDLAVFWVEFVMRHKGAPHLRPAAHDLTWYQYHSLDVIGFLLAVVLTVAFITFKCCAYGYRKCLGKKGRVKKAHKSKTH

Liver microsome = test: Drug metabolism in human liver microsomes assessed as formation of 3-(4-((6-methoxy-1-methyl-1H-benzo[d]imidazol-2-yl)methoxy)phenyl)-2-(methylthio)propanoic acid at 20 uM after 2 to 4 hrs by radio-HPLC/LC-MS/MS analysis in presence of NADPH-generating system/SAM and UDPGA/SAM; assay type: ADME
[2] = target: T2, UDP-glucuronosyltransferase 2B4 (Homo sapiens, UniProt P06133); test: (§1) Activity of human UGT2B4 expressed in microsomes isolated from baculovirus infected insect cell assessed as enzyme-mediated (2S,3S,4S,5R,6R)-3,4,5-trihydroxy-6-(5-(4-((6-methoxy-1-methyl-1H-benzo[d]imidazol-2-yl)methoxy)benzyl)-2,4-dioxothiazolidin-3-yl)tetrahydro-2H-pyran-2-carboxylic acid formation at 20 uM after 4 hrs by radio-HPLC/LC-MS/MS analysis in presence of UDPGA; assay type: ADME
T2 sequence (P06133 whole entry): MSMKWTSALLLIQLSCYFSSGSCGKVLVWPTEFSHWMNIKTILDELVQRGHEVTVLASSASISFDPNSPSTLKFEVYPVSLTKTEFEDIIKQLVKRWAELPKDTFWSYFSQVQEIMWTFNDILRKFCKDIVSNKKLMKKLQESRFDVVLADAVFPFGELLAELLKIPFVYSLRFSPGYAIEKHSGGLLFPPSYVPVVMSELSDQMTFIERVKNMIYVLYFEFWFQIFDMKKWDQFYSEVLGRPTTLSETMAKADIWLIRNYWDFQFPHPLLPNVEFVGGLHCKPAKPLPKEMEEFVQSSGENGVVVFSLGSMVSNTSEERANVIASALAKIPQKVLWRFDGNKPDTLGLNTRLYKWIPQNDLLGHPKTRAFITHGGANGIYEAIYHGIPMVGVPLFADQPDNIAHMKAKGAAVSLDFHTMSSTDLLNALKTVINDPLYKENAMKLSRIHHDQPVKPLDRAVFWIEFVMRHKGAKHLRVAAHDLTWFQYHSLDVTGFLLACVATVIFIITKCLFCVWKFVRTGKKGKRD

[3] = target: T3, UDP-glucuronosyltransferase 1A8 (Homo sapiens, UniProt Q9HAW9); test: as §1, with “UGT1A8” for “UGT2B4”; assay type: ADME
T3 sequence (Q9HAW9 whole entry): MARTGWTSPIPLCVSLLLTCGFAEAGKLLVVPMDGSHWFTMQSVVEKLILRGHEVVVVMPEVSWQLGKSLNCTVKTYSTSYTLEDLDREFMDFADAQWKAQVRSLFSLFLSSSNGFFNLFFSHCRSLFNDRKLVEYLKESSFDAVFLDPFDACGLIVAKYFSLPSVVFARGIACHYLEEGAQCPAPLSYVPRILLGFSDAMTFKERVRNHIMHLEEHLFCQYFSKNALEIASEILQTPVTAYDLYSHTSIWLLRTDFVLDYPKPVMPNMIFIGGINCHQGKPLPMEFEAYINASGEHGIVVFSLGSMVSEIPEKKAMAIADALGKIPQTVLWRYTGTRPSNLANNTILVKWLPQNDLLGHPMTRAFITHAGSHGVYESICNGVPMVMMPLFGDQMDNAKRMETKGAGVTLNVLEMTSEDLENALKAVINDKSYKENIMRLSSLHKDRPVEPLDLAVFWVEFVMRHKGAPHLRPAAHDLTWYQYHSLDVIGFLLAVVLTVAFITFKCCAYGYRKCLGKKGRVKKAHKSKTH

[4] = Drug metabolism in human hepatocytes assessed as formation of 2-mercapto-3-(4-((6-methoxy-1-methyl-1H-benzo[d]imidazol-2-yl)methoxy)phenyl)propanamide at 30 uM after 3 hrs by radio-HPLC/LC-MS/MS analysis in presence of NADPH-generating system and NADPH-generating system/SAM; assay type: ADME, cell-based, Hepatocyte
Cytochrome P450 1A2 = target: T4, Cytochrome P450 1A2 (Homo sapiens, UniProt P05177); test: as §1, with “human CYP1A2” for “human UGT2B4”, “after 2” for “after 4”, “UDPGA and UDPGA/SAM” for “UDPGA”; assay type: ADME
T4 sequence (P05177 whole entry): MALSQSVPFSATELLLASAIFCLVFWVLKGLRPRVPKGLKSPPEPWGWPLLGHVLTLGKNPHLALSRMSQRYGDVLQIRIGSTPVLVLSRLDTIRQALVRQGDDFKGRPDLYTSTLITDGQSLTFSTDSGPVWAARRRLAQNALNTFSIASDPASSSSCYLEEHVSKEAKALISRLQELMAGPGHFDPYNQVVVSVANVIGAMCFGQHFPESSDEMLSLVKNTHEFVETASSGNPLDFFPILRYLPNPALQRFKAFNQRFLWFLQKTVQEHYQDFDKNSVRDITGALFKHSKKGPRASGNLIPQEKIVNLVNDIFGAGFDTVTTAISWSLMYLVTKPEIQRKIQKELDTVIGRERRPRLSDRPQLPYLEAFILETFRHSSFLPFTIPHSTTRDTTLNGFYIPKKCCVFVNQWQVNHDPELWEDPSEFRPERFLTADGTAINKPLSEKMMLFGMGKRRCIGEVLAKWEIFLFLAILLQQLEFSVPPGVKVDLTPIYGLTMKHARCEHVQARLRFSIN

Drug metabolism [1]: metabolite_not_detected
Drug metabolism (Liver microsome): metabolite_detected
Drug metabolism [2]: metabolite_not_detected
Drug metabolism [3]: metabolite_not_detected
Drug metabolism [4]: metabolite_not_detected
Drug metabolism (Cytochrome P450 1A2): metabolite_not_detected
SMILES: COc1ccc2nc(COc3ccc(C[14CH]4SC(=O)NC4=O)cc3)n(C)c2c1.Cl (racemic)
